# Reference: US4072744A, “N^2 -naphthalenesulfonyl-L-argininamides and the pharmaceutically acceptable salts thereof” (Mitsubishi Chemical Industries Limited, priority 1974, dated 1978)
# Assay: acute toxicity (LD50) by intraperitoneal administration in mice
# Conditions: mouse, in vivo, ip, mice (male, 20 g)
# Text: Representative LD50 values, for example, for N^2 -(5,6,7,8-tetrahydro-1-naphthalenesulfonyl)-N-methoxyethylglycine, N^2 -(7-methyl-2-naphthalenesulfonyl)-N-butylglycine and N^2 -(6,7-dimethyl-1-naphthalenesulfonyl)-N-methoxyethylglycine are above 1,500 milligrams per kilogram, respectively.
row,Structure (SMILES),LD50 [mg/kg]
1,"COCCN(CC(=O)O)C(=O)[C@H](CCCNC(=N)N)NS(=O)(=O)c1cccc2c1CCCC2 [Sample 3, N^2-(5,6,7,8-tetrahydro-1-naphthalenesulfonyl)-L-arginyl-N-methoxyethylglycine]",> 1500
2,"CCCCN(CC(=O)O)C(=O)[C@H](CCCNC(=N)N)NS(=O)(=O)c1ccc2ccc(C)cc2c1 [Sample 14, N^2-(7-methyl-2-naphthalenesulfonyl)-L-arginyl-N-butylglycine]",> 1500
3,"COCCN(CC(=O)O)C(=O)[C@H](CCCNC(=N)N)NS(=O)(=O)c1cccc2cc(C)c(C)cc12 [Sample 23, N^2-(6,7-dimethyl-1-naphthalenesulfonyl)-L-arginyl-N-methoxyethylglycine]",> 1500
